Data on 26 molecules can be found in patent US20100120730A1, “6-BENZYL-2,3,4,7-TETRAHYDRO-INDOLO [2,3-C] QUINOLINE COMPOUNDS USEFUL AS PDE5 INHIBITORS” (NYCOMED GmbH, priority 2007, published 2010).

Broadly, the IC50 is the point on the concentration scale where inhibition reaches its midpoint. Usually melting point stands for the temperature of the solid-liquid transition.

The target of one data set is T1, human PDE5 (Homo sapiens, UniProt O76074).
T1 construct: from tissue; host or cells: human platelets from fresh donor blood (10,000 g supernatant of sonified platelets)
Nature of the data set: Inhibition of PDE5 activity (modified SPA test, human platelet lysate). The conditions noted are these: PDE5-containing human platelet lysate, 0.5 μM cGMP substrate, 37° C. Type of data set: biochemical. On the procedure: As a source for human PDE5, platelets were used. For that purpose, 150 ml fresh blood from human donors anticoagulated with citrate [final concentration 0.3% (w/v)] was centrifuged at 200 g for 10 min to obtain the so-called platelet-rich-plasma (PRP) as a supernatant. 1/10 volume of ACD solution (85 mM Na3-citrate, 111 mM D-glucose, 71 mM citric acid, pH 4.4) was added to 9/10 volume of PRP. After centrifugation (1,400 g, 10 min) the cell pellet was resuspended in 3 ml homogenization buffer (NaCl 140 mM, KCl 3.8 mM, EGTA 1 mM, MgCl2 1 mM, Tris-HCl 20 mM, beta-mercaptoethanol 1 mM, pH 8.2) plus protease-inhibitor mix giving rise to the final concentrations of 0.5 mM Pefablock (Roche), 10 μM Leupeptin, 5 μM Trypsininhibitor, 2 mM Benzamidin and 10 μM Pepstatin A. The suspension was sonified and thereafter centrifuged for 15 min at 10,000 g. The resulting supernatant (platelet lysate) was used for enzymatic testings.
PDE5A1 activity is inhibited by the compounds of the invention in a modified SPA (scintillation proximity assay) test, supplied by Amersham Biosciences (see procedural instructions “phosphodiesterase [3H]cAMP SPA enzyme assay, code TRKQ 7090”), carried out in 96-well microtitre plates (MTP's). The test volume is 100 μl and contains 20 mM Tris buffer (pH 7.4), 0.1 mg of BSA (bovine serum albumin)/ml, 5 mM Mg^2+, 1 μM motapizone, 10 nM PDE2 inhibitor BAY-60-7550, 0.5 μM cGMP (including about 50,000 cpm of [3H]cGMP as a tracer), 1 μl of the respective compound dilution in dimethylsulfoxide (DMSO) and sufficient PDE5-containing platelet lysat (10,000×g supernatant, see above) to ensure that 10-20 wt % of the cGMP is converted under the said experimental conditions. […] After a preincubation of 5 min at 37° C., the reaction was started by adding the substrate (cGMP) and the assay was incubated for a further 15 min; after that, it was stopped by adding SPA beads (50 μl). In accordance with the manufacturer's instructions, the SPA beads had previously been resuspended in water, but were then diluted 1:3 (v/v) in water; the diluted solution also contains 3 mM 8-methoxymethyl-3-isobutyl-1-methylxanthine (IBMX) to ensure a complete PDE activity stop. After the beads have been sedimented (>30 min), the MTP's are analyzed in commercially available luminescence detection devices. The corresponding IC50 values of the compounds for the inhibition of PDE activity are determined from the concentration-effect curves by means of non-linear regression.

Turning to `CC1(C)CC(=O)c2c(nc(Cc3cc(F)cc(Cl)c3)c3[nH]c4ccccc4c23)C1` [Example 36, 6-(3-Chloro-5-fluoro-benzyl)-3,3-dimethyl-2,3,4,7-tetrahydro-indolo[2,3-c]quinolin-1-one], the melting point is 219 to 221 °C. Moreover, at human PDE5, the 50% inhibitory concentration (IC50) is 234 nM.
Consider `CC1(C)CC(=O)c2c(nc(Cc3ccc4c(c3)OCO4)c3[nH]c4ccccc4c23)C1` [Example 37, 6-Benzo[1,3]dioxol-5-ylmethyl-3,3-dimethyl-2,3,4,7-tetrahydro-indolo[2,3-c]quinolin-1-one], for which the melting point was 193 to 196 °C (dec.). Besides, at human PDE5, the half-maximal inhibitory concentration (IC50) is 4.9 nM.
For the molecule `CC1(C)CC(=O)c2c(nc(Cc3ccc(O)c(F)c3)c3[nH]c4ccccc4c23)C1` [Example 38, 6-(3-Fluoro-4-hydroxy-benzyl)-3,3-dimethyl-2,3,4,7-tetrahydro-indolo[2,3-c]quinolin-1-one], the melting point lay in the range of 216 to 218 °C. At human PDE5, this molecule had an IC50 of 0.631 nM.
Turning to `CC1(C)CC(=O)c2c(nc(Cc3ccc(N)cc3)c3[nH]c4ccccc4c23)C1` [Example 40, 6-(4-Amino-benzyl)-3,3-dimethyl-2,3,4,7-tetrahydro-indolo[2,3-c]quinolin-1-one], the melting point was in the range of 123 to 124 °C. The molecule also had an IC50 at human PDE5 of 11.7 nM.
Taken in the same sequence, the figures for `CC1(C)CC(=O)c2c(nc(Cc3cccc(N)c3)c3[nH]c4ccccc4c23)C1` [Example 41, 6-(3-Amino-benzyl)-3,3-dimethyl-2,3,4,7-tetrahydro-indolo[2,3-c]quinolin-1-one] were 232 to 234 °C and 5.13 nM.
On the same counts, the results for `CC(=O)Nc1ccc(Cc2nc3c(c4c2[nH]c2ccccc24)C(=O)CC(C)(C)C3)cc1` [Example 44, N-[4-(3,3-Dimethyl-1-oxo-2,3,4,7-tetrahydro-1H-indolo[2,3-c]quinolin-6-ylmethyl)-phenyl]-acetamide] are 153 to 154 °C and 16.6 nM.
Taken in the same sequence, the figures for `COc1ccc(Cc2nc3c(c4c2[nH]c2ccccc24)C(O)CC(C)(C)C3)cc1` (stereo not shown) [Example 47, 6-(4-Methoxy-benzyl)-3,3-dimethyl-2,3,4,7-tetrahydro-1H-indolo[2,3-c]quinolin-1-ol] were 146 °C and 5.37 nM.
As for `COc1ccc(Cc2nc3c(c4c2[nH]c2ccccc24)C(O)CCC3)cc1` (stereo not shown) [Example 48, 6-(4-Methoxy-benzyl)-2,3,4,7-tetrahydro-1H-indolo[2,3-c]quinolin-1-ol], the melting point was 204 °C. Further, the IC50 against human PDE5 is 13.2 nM.
Taken in the same sequence, the figures for `OC1CCCc2nc(Cc3ccccc3)c3[nH]c4ccccc4c3c21` (stereo not shown) [Example 49, 6-Benzyl-2,3,4,7-tetrahydro-1H-indolo[2,3-c]quinolin-1-ol] were 211 °C and 66.1 nM.
Taken in the same sequence, the figures for `CC1(C)Cc2nc(Cc3ccc(O)cc3)c3[nH]c4ccccc4c3c2C(O)C1` (stereo not shown) [Example 51, 6-(4-Hydroxy-benzyl)-3,3-dimethyl-2,3,4,7-tetrahydro-1H-indolo[2,3-c]quinolin-1-ol] were 212 °C and 5.5 nM.
Taken in the same sequence, the figures for `COc1ccc(Cc2c3[nH]c4ccccc4c3c3c([n+]2[O-])CC(C)(C)CC3O)cc1` (stereo not shown) [Example 52, 6-(4-Methoxy-benzyl)-3,3-dimethyl-5-oxy-2,3,4,7-tetrahydro-1H-indolo[2,3-c]quinolin-1-ol] were 185 °C and 20.4 nM.
In turn, `CC1(C)Cc2nc(Cc3ccc(OC(F)(F)F)cc3)c3[nH]c4ccccc4c3c2C(O)C1` (stereo not shown) [Example 53, 3,3-Dimethyl-6-(4-trifluoromethoxy-benzyl)-2,3,4,7-tetrahydro-1H-indolo[2,3-c]quinolin-1-ol] returned a melting point of 117 to 119 °C. Moreover, the 50% inhibitory concentration (IC50) on human PDE5 was 89.1 nM.
On the same counts, the results for `CC1(C)Cc2nc(Cc3ccc(N)cc3)c3[nH]c4ccccc4c3c2C(O)C1` (stereo not shown) [Example 54, 6-(4-Amino-benzyl)-3,3-dimethyl-2,3,4,7-tetrahydro-1H-indolo[2,3-c]quinolin-1-ol] are 206 to 208 °C and 26.9 nM.
Taken in the same sequence, the figures for `CCOc1ccc(Cc2nc3c(c4c2[nH]c2ccccc24)C(O)CC(C)(C)C3)cc1` (stereo not shown) [Example 55, 6-(4-Ethoxy-benzyl)-3,3-dimethyl-2,3,4,7-tetrahydro-1H-indolo[2,3-c]quinolin-1-ol] were 182 to 184 °C and 25.1 nM.
On the same counts, the results for `CC1(C)Cc2nc(Cc3cccc([N+](=O)[O-])c3)c3[nH]c4ccccc4c3c2C(O)C1` (stereo not shown) [Example 56, 3,3-Dimethyl-6-(3-nitro-benzyl)-2,3,4,7-tetrahydro-1H-indolo[2,3-c]quinolin-1-ol] are 228 to 230 °C and 191 nM.
On to `CC1(C)Cc2nc(Cc3cccc(N)c3)c3[nH]c4ccccc4c3c2C(O)C1` (stereo not shown) [Example 57, 6-(3-Amino-benzyl)-3,3-dimethyl-2,3,4,7-tetrahydro-1H-indolo[2,3-c]quinolin-1-ol], for which the melting point lay within 225 to 227 °C. This molecule had an IC50 on human PDE5 of 4.07 nM.
`CC(C)c1ccc(Cc2nc3c(c4c2[nH]c2ccccc24)C(O)CC(C)(C)C3)cc1` (stereo not shown) [Example 58, 6-(4-Isopropyl-benzyl)-3,3-dimethyl-2,3,4,7-tetrahydro-1H-indolo[2,3-c]quinolin-1-ol] came in with a melting point of 112 to 114 °C. At human PDE5, this molecule gave a half-maximal inhibitory concentration (IC50) of 148 nM.
As to `CCC(=O)Nc1ccc(Cc2nc3c(c4c2[nH]c2ccccc24)C(O)CC(C)(C)C3)cc1` (stereo not shown) [Example 60, N-[4-(1-Hydroxy-3,3-dimethyl-2,3,4,7-tetrahydro-1H-indolo[2,3-c]quinolin-6-ylmethyl)-phenyl]-propionamide], the melting point was in the range of 165 to 168 °C. The same molecule showed an IC50 against human PDE5 of 70.8 nM.
On the same counts, the results for `OC1CCCc2nc(Cc3ccc4c(c3)OCO4)c3[nH]c4ccccc4c3c21` (stereo not shown) [Example 61, 6-Benzo[1,3]dioxol-5-ylmethyl-2,3,4,7-tetrahydro-1H-indolo[2,3-c]quinolin-1-ol] are 120 to 123 °C and 7.24 nM.
With `CC1(C)Cc2nc(Cc3cccc(Br)c3)c3[nH]c4ccccc4c3c2C(O)C1` (stereo not shown) [Example 62, 6-(3-Bromo-benzyl)-3,3-dimethyl-2,3,4,7-tetrahydro-1H-indolo[2,3-c]quinolin-1-ol], the melting point lay in the range of 118 to 125 °C. Further, the 50% inhibitory concentration (IC50) at human PDE5 is 50.1 nM.
Taken in the same sequence, the figures for `CC(=O)Nc1ccc(Cc2nc3c(c4c2[nH]c2ccccc24)C(O)CC(C)(C)C3)cc1` (stereo not shown) [Example 63, N-[4-(1-Hydroxy-3,3-dimethyl-2,3,4,7-tetrahydro-1H-indolo[2,3-c]quinolin-6-ylmethyl)-phenyl]-acetamide] were 195 to 197 °C and 46.8 nM.
As for `CC1(C)Cc2nc(Cc3ccc(F)cc3)c3[nH]c4ccccc4c3c2C(O)C1` (stereo not shown) [Example 64, 6-(4-Fluoro-benzyl)-3,3-dimethyl-2,3,4,7-tetrahydro-1H-indolo[2,3-c]quinolin-1-ol], the melting point was 187 to 189 °C. At human PDE5, this molecule gave an IC50 of 28.8 nM.
On the same counts, the results for `CC1(C)Cc2nc(Cc3ccc(F)c(F)c3)c3[nH]c4ccccc4c3c2C(O)C1` (stereo not shown) [Example 66, 6-(3,4-Difluoro-benzyl)-3,3-dimethyl-2,3,4,7-tetrahydro-1H-indolo[2,3-c]quinolin-1-ol] are 121 to 128 °C and 16.6 nM.
On the same counts, the results for `CC1(C)Cc2nc(Cc3cc(F)cc(F)c3)c3[nH]c4ccccc4c3c2C(O)C1` (stereo not shown) [Example 67, 6-(3,5-Difluoro-benzyl)-3,3-dimethyl-2,3,4,7-tetrahydro-1H-indolo[2,3-c]quinolin-1-ol] are 117 to 123 °C and 7.94 nM.
On the same counts, the results for `CC(=O)Nc1ccc(Cc2nc3c(c4c2[nH]c2ccccc24)C(O)CCC3)cc1` (stereo not shown) [Example 69, N-[4-(1-Hydroxy-2,3,4,7-tetrahydro-1H-indolo[2,3-c]quinolin-6-ylmethyl)-phenyl]-acetamide] are 195 to 197 °C and 302 nM.
Regarding `CC1(C)Cc2nc(Cc3ccc(NC(N)=O)cc3)c3[nH]c4ccccc4c3c2C(O)C1` (stereo not shown) [Example 70, [4-(1-Hydroxy-3,3-dimethyl-2,3,4,7-tetrahydro-1H-indolo[2,3-c]quinolin-6-ylmethyl)-phenyl]-urea], the melting point is 236 to 238 °C. Further, inhibition on human PDE5 was half-maximal at 22.9 nM (IC50).
